Where two headings read alike, the source gives them in different places. Where only a bound is given, the exact number is not on record here.

Assay [1] addresses T1, AHR (Homo sapiens, UniProt P35869).
T1 construct: U87 MG glioblastoma cells (ATCC #HTB-14) endogenously expressing AHR; endogenous in cells; host or cells: U87 MG glioblastoma cells (ATCC #HTB-14)
T1 sequence (P35869 11-848): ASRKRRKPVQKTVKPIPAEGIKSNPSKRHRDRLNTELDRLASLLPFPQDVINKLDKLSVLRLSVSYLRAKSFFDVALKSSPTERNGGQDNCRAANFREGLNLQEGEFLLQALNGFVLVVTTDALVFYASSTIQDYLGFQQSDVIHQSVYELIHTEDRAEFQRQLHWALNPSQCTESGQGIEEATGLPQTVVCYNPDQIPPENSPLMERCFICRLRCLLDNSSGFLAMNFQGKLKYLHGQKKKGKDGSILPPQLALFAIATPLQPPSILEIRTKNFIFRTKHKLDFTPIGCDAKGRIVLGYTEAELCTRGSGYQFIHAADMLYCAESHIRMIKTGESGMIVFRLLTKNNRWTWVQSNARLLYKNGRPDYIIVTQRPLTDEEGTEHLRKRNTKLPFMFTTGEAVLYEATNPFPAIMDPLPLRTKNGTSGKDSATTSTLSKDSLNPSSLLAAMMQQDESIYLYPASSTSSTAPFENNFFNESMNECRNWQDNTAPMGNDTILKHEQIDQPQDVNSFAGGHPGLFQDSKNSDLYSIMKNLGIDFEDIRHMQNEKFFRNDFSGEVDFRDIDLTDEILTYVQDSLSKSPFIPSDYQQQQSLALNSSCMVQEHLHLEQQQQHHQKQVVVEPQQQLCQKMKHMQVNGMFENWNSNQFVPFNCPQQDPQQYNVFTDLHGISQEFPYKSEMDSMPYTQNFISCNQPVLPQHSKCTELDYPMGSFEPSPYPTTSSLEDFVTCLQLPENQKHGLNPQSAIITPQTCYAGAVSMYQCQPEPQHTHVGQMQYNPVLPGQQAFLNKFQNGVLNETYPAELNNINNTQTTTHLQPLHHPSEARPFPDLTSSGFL
The assay can be described thus: In vitro assay 1: antagonism in human cell line (AHR transactivation, firefly luciferase reporter, kynurenic acid prestimulated). It counts as cell-based. As to conditions: AHR Antagonism Human IC50 [M]. The method, boiled down: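 Antagonism is measured against kynurenic acid prestimulation in U87 MG glioblastoma cells carrying stable DRE-luciferase and Renilla reporters. Positive inhibition control: 150 μM kynurenic acid with 5 μM staurosporine. Values are normalized to controls; repeats are averaged or given as medians.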
On the technique in general: A reporter such as luciferase makes a cellular process visible.

The target of assay [2] is T2, AHR (Mus musculus, UniProt P30561).
T2 sequence (P30561 1-848 P471L/N533S/M589L): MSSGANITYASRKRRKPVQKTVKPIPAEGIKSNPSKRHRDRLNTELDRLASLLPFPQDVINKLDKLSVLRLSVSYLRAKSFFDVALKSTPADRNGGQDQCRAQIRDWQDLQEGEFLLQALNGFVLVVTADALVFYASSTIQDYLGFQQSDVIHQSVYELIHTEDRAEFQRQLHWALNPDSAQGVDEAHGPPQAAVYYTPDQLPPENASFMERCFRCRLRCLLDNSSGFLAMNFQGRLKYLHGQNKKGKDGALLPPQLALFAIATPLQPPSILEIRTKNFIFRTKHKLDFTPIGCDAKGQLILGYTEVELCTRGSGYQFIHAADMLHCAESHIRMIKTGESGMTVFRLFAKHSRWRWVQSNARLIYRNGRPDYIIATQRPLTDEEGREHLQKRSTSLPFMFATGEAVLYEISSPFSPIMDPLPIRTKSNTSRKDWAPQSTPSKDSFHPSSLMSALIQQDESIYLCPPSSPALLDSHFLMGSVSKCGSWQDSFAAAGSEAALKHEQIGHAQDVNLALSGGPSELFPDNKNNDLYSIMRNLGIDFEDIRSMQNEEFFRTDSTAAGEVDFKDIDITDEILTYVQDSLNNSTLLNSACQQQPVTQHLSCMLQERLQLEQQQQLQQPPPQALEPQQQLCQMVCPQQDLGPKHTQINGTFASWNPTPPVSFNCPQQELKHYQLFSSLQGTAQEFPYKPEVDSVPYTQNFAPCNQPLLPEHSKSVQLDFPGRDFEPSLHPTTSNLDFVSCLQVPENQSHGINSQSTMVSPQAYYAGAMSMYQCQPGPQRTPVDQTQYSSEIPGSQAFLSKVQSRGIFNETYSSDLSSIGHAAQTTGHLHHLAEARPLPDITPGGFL
The assay can be described thus: In vitro assay 3: antagonism in mouse cell line (AHR transactivation, firefly luciferase reporter, kynurenic acid prestimulated). It counts as cell-based. The essentials:
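Luminescence from an AHR-dependent DRE-luciferase reporter, stably integrated in mouse cells, quantifies blockade of kynurenic acid-driven activation. Unstimulated cells mark maximal inhibition; normalization uses both control types, and multiply tested compounds carry mean or median values.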

The mark [3] stands for this setting: mouse Hepa 1c1c7 cells, 200 μM kynurenic acid, 20 hours, read-out: AHR Antagonism Mouse IC50.
Where [4] appears, read: read-out: AHR Antagonism Mouse IC50, mouse Hepa 1c1c7 cells, 200 μM kynurenic acid, 20 hours.

A word on the IC50: it is the concentration that inhibits the measured activity by half. Consider `O=C1NCCCC[C@H]1Nc1nc2c(Cl)cccc2c2nc(-c3ccc(F)cc3)nn12` [Example 554, (3R)-3-{[7-chloro-2-(4-fluorophenyl)[1,2,4]triazolo[1,5-c]quinazolin-5-yl]amino}azepan-2-one], for which the IC50 was determined as 7.68e-09 M against AHR [1] and 2.45 nM at AHR [2] (setting [3]).
`O=C1NCCCC[C@H]1Nc1nc2c(Cl)cccc2c2nc(-c3cccc(F)c3)nn12` [Example 555, (3R)-3-{[7-chloro-2-(3-fluorophenyl)[1,2,4]triazolo[1,5-c]quianzolin-5-yl]amino}azepan-2-one]: the half-inhibitory concentration (IC50) at AHR [1] is 1.82e-08 M; on AHR [2] (setting [3]) it was 6.92 nM.
Regarding `COc1ccc(-c2nc3c4cccc(Br)c4nc(N[C@@H](C(N)=O)C(C)C)n3n2)cc1` [Example 556, N^2-[7-bromo-2-(4-methoxyphenyl)[1,2,4]triazolo[1,5-c]quinazolin-5-yl]-D-valinamide], the figures for the half-inhibitory concentration (IC50) at AHR [1] and on AHR [2] (setting [3]) were 4.03e-10 M and 0.415 nM, respectively.
As to `CC[C@@H](Nc1nc2c(Br)cccc2c2nc(-c3ccc(OC)cc3)nn12)C(N)=O` [Example 557, (2R)-2-{[7-bromo-2-(4-methoxyphenyl)[1,2,4]triazolo[1,5-c]quinazolin-5-yl]amino}butanamide], the values for the IC50 on AHR [1] and on AHR [2] (setting [3]) were 2.39e-10 M and 0.865 nM, respectively.
`N#Cc1ccc(-c2nc3c4cccc(Br)c4nc(N[C@@H]4CCCCNC4=O)n3n2)cc1` [Example 558, 4-(7-bromo-5-{[(3R)-2-oxoazepan-3-yl]amino}[1,2,4]triazolo[1,5-c]quinazolin-2-yl)benzonitrile]: the IC50 is 5.96e-09 M against AHR [1] and 0.276 nM on AHR [2] (setting [3]).
Take `N#Cc1ccc(-c2nc3c4cccc(Br)c4nc(N[C@H]4CCCCNC4=O)n3n2)cc1` [Example 559, 4-(7-bromo-5-{[(3S)-2-oxoazepan-3-yl]amino}[1,2,4]triazolo[1,5-c]quinazolin-2-yl)benzonitrile]: the IC50 against AHR [1] worked out at 5.14e-09 M; at AHR [2] (setting [3]), 10.4 nM.
With `N#Cc1ccc(-c2nc3c4cccc(Br)c4nc(N[C@@H]4CCCNC4=O)n3n2)cc1` [Example 560, 4-(7-bromo-5-{[(3R)-2-oxopiperidin-3-yl]amino}[1,2,4]triazolo[1,5-c]quinazolin-2-yl)benzonitrile], the 50% inhibitory concentration (IC50) against AHR [1] worked out at 3.8e-09 M; on AHR [2] (setting [3]), 5.57 nM.
Consider `N#Cc1ccc(-c2nc3c4cccc(Br)c4nc(N[C@@H]4CCNC4=O)n3n2)cc1` [Example 561, 4-(7-bromo-5-{[(3R)-2-oxopyrrolidin-3-yl]amino}[1,2,4]triazolo[1,5-c]quinazolin-2-yl)benzonitrile], for which the 50% inhibitory concentration (IC50) against AHR [1] worked out at 3.96e-09 M; at AHR [2] (setting [3]), 7.55 nM.
For `CCC[C@@H](Nc1nc2c(Br)cccc2c2nc(-c3ccc(C#N)cc3)nn12)C(=O)NC` [Example 562, N^2-[7-bromo-2-(4-cyanophenyl)[1,2,4]triazolo[1,5-c]quinazolin-5-yl]-N-methyl-D-norvalinamide], the half-inhibitory concentration (IC50) against AHR [1] was found to be 1.37e-09 M; on AHR [2] (setting [3]) it was 2.98 nM.
Turning to `CC[C@H](Nc1nc2c(Br)cccc2c2nc(-c3ccc(C#N)cc3)nn12)C(N)=O` [Example 564, (2S)-2-{[7-bromo-2-(4-cyanophenyl)[1,2,4]triazolo[1,5-c]quinazolin-5-yl]amino}butanamide], the values for the IC50 against AHR [1] and at AHR [2] (setting [3]) were 1.23e-08 M and 17.5 nM, respectively.
Consider `COc1ccc(-c2nc3c4cccc(Br)c4nc(N[C@@H]4CCCCNC4=O)n3n2)c(OC(F)(F)F)c1` [Example 565, (3R)-3-({7-bromo-2-[4-methoxy-2-(trifluoromethoxy)phenyl][1,2,4]triazolo[1,5-c]quinazolin-5-yl}amino)azepan-2-one], for which the figures for the IC50 on AHR [1] and at AHR [2] (setting [3]) were 8.44e-09 M and 3.33 nM, respectively.
As to `COc1ccc(-c2nc3c4cccc(Br)c4nc(N[C@H]4CCCCNC4=O)n3n2)c(OC(F)(F)F)c1` [Example 566, (3S)-3-({7-bromo-2-[4-methoxy-2-(trifluromethoxy)phenyl][1,2,4]triazolo[1,5-c]quinazolin-5-yl}amino)azepan-2-one], the figures for the concentration for half-maximal inhibition (IC50) against AHR [1] and at AHR [2] (setting [3]) were 1.76e-07 M and 20.8 nM, respectively.
Consider `CC[C@@H](Nc1nc2c(Br)cccc2c2nc(-c3ccc(OC)cc3OC(F)(F)F)nn12)C(N)=O` [Example 567, (2R)-2-({7-bromo-2-[4-methoxy-2-(trifluoromethoxy)phenyl][1,2,4]triazolo[1,5-c]quinazolin-5-yl}amino)butanamide], for which the results for the IC50 at AHR [1] and at AHR [2] (setting [4]) were 1.21e-08 M and 3.05 nM, respectively.
As for `CC[C@H](Nc1nc2c(Br)cccc2c2nc(-c3ccc(OC)cc3OC(F)(F)F)nn12)C(N)=O` [Example 568, (2S)-2-({7-bromo-2-[4-methoxy-2-(trifluoromethoxy)phenyl][1,2,4]triazolo[1,5-c]quinazolin-5-yl}amino)butanamide], the IC50 against AHR [1] was 3.31e-07 M; on AHR [2] (setting [4]), 29.9 nM.
Take `COc1ccc(-c2nc3c4cccc(Br)c4nc(N[C@@H]4CCCCNC4=O)n3n2)c(C(F)(F)F)c1` [Example 569, (3R)-3-({7-bromo-2-[4-methoxy-2-(trifluoromethyl)phenyl][1,2,4]triazolo[1,5-c]quinazolin-5-yl}amino)azepan-2-one]: the IC50 on AHR [1] came out at 8.4e-09 M; on AHR [2] (setting [3]), 4.3 nM.
`COc1ccc(-c2nc3c4cccc(Br)c4nc(N[C@H]4CCCCNC4=O)n3n2)c(C(F)(F)F)c1` [Example 570, (3S)-3-({7-bromo-2-[4-methoxy-2-(trifluoromethyl)phenyl][1,2,4]triazolo[1,5-c]quinazolin-5-yl}amino)azepan-2-one]: the IC50 turned out to be 8.08e-07 M at AHR [1] and 80.7 nM at AHR [2] (setting [3]).
For `O=C1NCCCC[C@H]1Nc1nc2c(Br)cccc2c2nc(-c3ccc(Cl)cc3OC(F)(F)F)nn12` [Example 571, (3R)-3-({7-bromo-2-[4-chloro-2-(trifluoromethoxy)phenyl][1,2,4]triazolo[1,5-c]quinazolin-5-yl}amino)azepan-2-one] the same measures were above 2e-05 M and 10.1 nM.
For `O=C1NCCCC[C@@H]1Nc1nc2c(Br)cccc2c2nc(-c3ccc(Cl)cc3OC(F)(F)F)nn12` [Example 572, (3S)-3-({7-bromo-2-[4-chloro-2-(trifluoromethoxy)phenyl][1,2,4]triazolo[1,5-c]quinazolin-5-yl}amino)azepan-2-one] the same measures were above 2e-05 M and 131 nM.
In the case of `CC[C@@H](Nc1nc2c(Br)cccc2c2nc(-c3ccc(Cl)cc3OC(F)(F)F)nn12)C(N)=O` [Example 573, (2R)-2-({7-bromo-2-[4-chloro-2-(trifluoromethoxy)phenyl][1,2,4]triazolo[1,5-c]quinazolin-5-yl}amino)butanamide], the IC50 against AHR [1] came out at 3.36e-09 M; on AHR [2] (setting [3]), 1.39 nM.
For `CC[C@H](Nc1nc2c(Br)cccc2c2nc(-c3ccc(Cl)cc3OC(F)(F)F)nn12)C(N)=O` [Example 574, (2S)-2-({7-bromo-2-[4-chloro-2-(trifluoromethoxy)phenyl][1,2,4]triazolo[1,5-c]quinazolin-5-yl}amino)butanamide] the same measures were 5e-09 M and 1.07 nM.

These data come from patent US20230113037A1 (Bayer Aktiengesellschaft, priority 2019, published 2023).
